In patent publication US20120065228A1, “COMPOSITIONS AND METHODS FOR TREATING, CONTROLLING, REDUCING, OR AMELIORATING OCULAR INFLAMMATORY WITH LOWER RISK OF INCREASED INTRAOCULAR PRESSURE” (priority 2007, published 2012):
Values joined by “and” are separate entries in the source; they are usually repeats but may differ in a detail not shown here. Equal values may be shown once. Read-outs that look alike come from different tables or passages of the source.

Key:
[1] = test system: PGE2 in the aqueous humor; test: Prostaglandin E2 (PGE2) measurement in aqueous humor, rabbit paracentesis model; assay type: in vivo; conditions: for PGE2 in aqueous humor, statistical significance versus CTR: p<0.05; for PGE2 in aqueous humor, Mean / PGE2 in aqueous humor: second paracentesis; for PGE2 in aqueous humor: individual eyes, listed as BOL
Experimental: (§1) Each rabbit was placed in a restraint device and tagged with the alphanumeric code. The formulations were instilled (50 μl) into the conjunctival sac of both eyes 180, 120, 90 and 30 min before the first paracentesis; then 15, 30, 90 min after the first paracentesis. To perform the first paracentesis the animals were anaesthetized by intravenous injection of 5 mg/kg Zoletil® (Virbac; 2.5 mg/kg tiletamine HCl and 2.5 mg/kg zolazepam HCl) and one drop of local anesthetic (Novesina®, Novartis) was administered to the eye. Anterior chamber paracentesis was performed with a 26 G needle attached to a tuberculin syringe; the needle was introduced into the anterior chamber through the cornea, taking care not to damage the tissues. Two hours after the ® first paracentesis, the animals were sacrificed with 0.4 ml Tanax® (Intervet International B.V.) and the second paracentesis was performed. About 100 μl of aqueous humor were removed at the second paracentesis. Aqueous humor was immediately split in four aliquots and stored at −80° C. until analysis. Then both eyes were enucleated and the iris-ciliary body was carefully excised, placed in polypropylene tubes, and stored at −80° C. until analysis.
For the quantitative determination of PGE2 in the aqueous humor we used the PGE2 Immunoassay kit (R&D Systems; Cat. No. KGE004; Lot. No. 240010). Eleven microliters or 16 μl of aqueous humor were diluted to 110 μl or 160 μl with the calibrator diluent solution provided with the kit. One hundred microliters of samples and of standards were load into a 96-well plate and recorded in a plate layout. Samples were treated following the assay procedure described in the kit. A microplate reader (GDV, Italy; model DV 990 B/V6) set at 450 nm (wavelength correction at 540 nm) was used for making the calibration and analyzing the samples.
(§2) Pupillary diameter, PGE2, protein, PMN, and MPO were expressed as mean±SEM. Statistical analysis was performed using one way ANOVA followed by a Newman-Keuls post hoc test. Clinical score was expressed as % of eyes and the statistical analysis was performed using Kruskal-Wallis followed by a Dunn post hoc test. P<0.05 was considered statistically significant in both cases. Prism 4 software (GraphPad Software, Inc.) was used for the analysis and graphs.

leukocytes (PMN) = test: Leukocytes (PMN) measurement in aqueous humor, rabbit paracentesis model; assay type: in vivo; conditions: second paracentesis; for PMN in aqueous humor: individual eyes, listed as BOL
Experimental: as §1
For the determination of the number of leukocytes we used a haemocytometer (Improved Neubauer Chamber; Bright-line. Hausser Scientific) and a Polyvar 2 microscope (Reichert-Jung).
as §2

monkey TM cells = test: Cell metabolic activity (resazurin reduction) assay in monkey TM cells; assay type: cell-based, rhesus monkeys (Macaca mulatta); conditions: at the conclusion of the treatment periods
Experimental: A modification of previously described methods^40 was employed to evaluate cell metabolic activity, an index of cell viability. After collection of CM samples, cells were briefly rinsed in modified Hanks balanced salt solution containing Ca^++ and Mg^++ (“MHBSS”), and then 0.0025% (w/v) resazurin (Sigma) in MHBSS was added to sample wells. Plates were incubated (37° C., 5% CO2, 95% humidity) for 90 minutes, after which fluorescence (Excitation 560 nm, Emission 590 nm) was read (Victor 3V Multilabel Counter, Wallac, Turku, Finland). As a positive control for decreased cellular metabolic reduction of resazurin, in each plate an additional well of vehicle control-treated cells was preincubated with 0.06% hydrogen peroxide (Fisher, Atlanta, Ga.) in MHBSS.

Myeloperoxidase (MPO) = Myeloperoxidase (MPO) activity in iris-ciliary body, rabbit paracentesis model; assay type: in vivo; conditions: for MPO Unit/g: iris-ciliary body samples collected after the second paracentesis, individual eyes (DX/SX), listed as BOL; for MPO activity in iris-ciliary body, Mean: after the second paracentesis
Experimental: as §1
The activity of MPO was measured as previously described by Williams et al. The iris-ciliary bodies were carefully dried, weighed and immersed in 1 ml of hexa-decyl-trimethyl-ammonium bromide solution. Then, the samples were sonicated for 10 sec on ice by a ultrasound homogenizer (HD 2070, Bandelin electronic), freeze-thawed three times, sonicated for 10 sec and centrifuged at 14,000 g for 10 min to remove cellular debris. An aliquot of the supernatant (40-200 μl) was diluted to 3 ml with the o-dianisidine 2HCl/H2O2 solution. The change in absorbance at 460 nm was continuously monitored for 5 min by a spectrophotometer (UV/Vis Spectrometer Lambda EZ 201; Perkin Elmer). The slope of the line (Δ/min) was determined for each sample and used to calculate the number of units of MPO in the tissue as follows:
were ε=11.3 mM^−1. Values were expressed as units of MPO/g of tissue.
as §2

rabbit eye = test: Clinical evaluation by slit lamp (clinical score), rabbit paracentesis model; assay type: in vivo; parameters: key to Clinical Score −180 min / Clinical Score −5 min / Clinical Score +115 min: 0: normal; 1: discrete dilatation of iris and conjunctival vessels; 2: moderate dilatation of iris and conjunctival vessels; 3: intense iridal hyperemia with flare in the anterior chamber; 4: intense iridal hyperemia with flare in the anterior chamber and presence of fibrinous exudates; conditions: for Clinical Score −5 min: 5 min before the first paracentesis; for Clinical Score −5 min / Clinical Score +115 min / Clinical Score −180 min: individual eyes; for Clinical Score +115 min: 5 min before the second paracentesis; for Clinical Score −180 min: basal
[2] = test system: New Zealand White rabbits; assay type: in vivo; conditions: for Rabbits that died or were euthanized between Days 11 and 33: right eye four times daily, Days 1-31; for Mortality (animals found dead or euthanized prior to study completion/number of animals in group): 50 μL topical right eye 4 x daily, to Day 33
Experimental: On Days 1-31, animals received daily topical doses of the appropriate test article into the right eye. Animals were dosed four times per day, with doses administered 2 hours apart. Doses were administered using a calibrated 50-μL pipette. The eyelids were held close for 10 seconds immediately following dosing. The time of each dose administration was recorded.
Animals determined to be moribund were euthanized with an intravenous injection of commercial euthanasia solution.

[3] = 0.1% topical formulation, +115 min, 8 eyes
[4] = 0.5% topical formulation, +115 min, 8 eyes

Cc1ccc2c(NCC(O)(CC(C)(C)c3cc(F)cc4c3OCC4)C(F)(F)F)cccc2n1 (stereo not drawn) [BOL-303242-X]
PGE2 in aqueous humor, statistical significance versus CTR ([1]; 0.1% topical formulation): statistically significant versus CTR | PGE2 in aqueous humor, Mean ([1]; 0.1% topical formulation): 1.452 ng/mL | PGE2 in aqueous humor ([1]; 0.1% topical formulation): 1.62 ng/mL and 1.88 ng/mL and 2.15 ng/mL and 0.70 ng/mL and 1.34 ng/mL and 1.03 ng/mL | PGE2 in aqueous humor, statistical significance versus CTR ([1]; 0.5% topical formulation): statistically significant versus CTR | PGE2 in aqueous humor, Mean ([1]; 0.5% topical formulation): 1.384 ng/mL | PGE2 in aqueous humor ([1]; 0.5% topical formulation): 2.31 ng/mL and 2.59 ng/mL and 0.53 ng/mL and 0.75 ng/mL and 0.80 ng/mL and 1.62 ng/mL and 1.09 ng/mL | PGE2 in aqueous humor, Mean ([1]; 1% topical formulation): 2.168 ng/mL | PGE2 in aqueous humor ([1]; 1% topical formulation): 0.50 ng/mL and 1.87 ng/mL and 1.71 ng/mL and 4.04 ng/mL and 1.11 ng/mL and 3.78 ng/mL | PMN in aqueous humor, Mean (leukocytes (PMN); 0.1% topical formulation): 28.333 number/μl | PMN in aqueous humor (leukocytes (PMN); 0.1% topical formulation): 20 number/μl (4×) and 40 number/μl and 50 number/μl | PMN in aqueous humor, Mean (leukocytes (PMN); 0.5% topical formulation): 21.250 number/μl | PMN in aqueous humor (leukocytes (PMN); 0.5% topical formulation): 40 number/μl (2×) and 20 number/μl (3×) and 10 number/μl (3×) | PMN in aqueous humor, Mean (leukocytes (PMN); 1% topical formulation): 28.750 number/μl | PMN in aqueous humor (leukocytes (PMN); 1% topical formulation): 30 number/μl (3×) and 20 number/μl (3×) and 40 number/μl (2×) | Cell viability (chemical reduction of resazurin) compared to vehicle controls (monkey TM cells): nor did any drug treatments result in a loss of cell viability | MPO Unit/g (Myeloperoxidase (MPO); 0.1% BOL): 1.04 Unit/g and 1.00 Unit/g and 1.14 Unit/g and 1.06 Unit/g and 1.22 Unit/g and 0.61 Unit/g and 1.05 Unit/g and 0.65 Unit/g | MPO activity in iris-ciliary body, Mean (Myeloperoxidase (MPO); 0.1% topical formulation): 0.971 MPO Unit/g | MPO Unit/g (Myeloperoxidase (MPO); 0.5% BOL): 0.85 Unit/g and 0.93 Unit/g and 0.79 Unit/g and 1.03 Unit/g and 0.75 Unit/g and 0.74 Unit/g and 0.54 Unit/g and 0.58 Unit/g | MPO activity in iris-ciliary body, Mean (Myeloperoxidase (MPO); 0.5% topical formulation): 0.775 MPO Unit/g | MPO Unit/g (Myeloperoxidase (MPO); 1% BOL): 0.66 Unit/g and 0.68 Unit/g and 0.49 Unit/g and 0.40 Unit/g and 0.34 Unit/g and 1.02 Unit/g and 0.31 Unit/g and 0.43 Unit/g | MPO activity in iris-ciliary body, Mean (Myeloperoxidase (MPO); 1% topical formulation): 0.542 MPO Unit/g | Clinical Score −5 min (rabbit eye; 0.1% topical formulation): 0 | Clinical Score +115 min (rabbit eye; 0.1% topical formulation, listed as BOL): 2 (6×) and 3 (2×) | Clinical score as percentage of eyes, Score (%) 2 (rabbit eye; [3]): 75% | Clinical score as percentage of eyes, Score (%) 3 (rabbit eye; [3]): 25% | Clinical Score −180 min (rabbit eye; 0.1% topical formulation): 0 | Clinical score as percentage of eyes, Score (%) 0 (rabbit eye; 0.1% topical formulation, −5 min, 8 eyes): 100% | Clinical score as percentage of eyes, Score (%) 0 (rabbit eye; 0.1% topical formulation, −180 min (basal), 8 eyes): 100% | Clinical Score −5 min (rabbit eye; 0.5% topical formulation): 0 | Clinical Score +115 min (rabbit eye; 0.5% topical formulation, listed as BOL): 2 (5×) and 1 (3×) | Clinical score as percentage of eyes, Score (%) 1 (rabbit eye; [4]): 37.5% | Clinical score as percentage of eyes, Score (%) 2 (rabbit eye; [4]): 62.5% | Clinical Score −180 min (rabbit eye; 0.5% topical formulation): 0 | Clinical score as percentage of eyes, Score (%) 0 (rabbit eye; 0.5% topical formulation, −5 min, 8 eyes): 100% | Clinical score as percentage of eyes, Score (%) 0 (rabbit eye; 0.5% topical formulation, −180 min (basal), 8 eyes): 100% | Clinical Score −5 min (rabbit eye; 1% topical formulation): 0 | Clinical Score +115 min (rabbit eye; 1% topical formulation): 2 | Clinical score as percentage of eyes, Score (%) 2 (rabbit eye; 1% topical formulation, +115 min, 8 eyes): 100% | Clinical Score −180 min (rabbit eye; 1% topical formulation): 0 | Clinical score as percentage of eyes, Score (%) 0 (rabbit eye; 1% topical formulation, −5 min, 8 eyes): 100% | Clinical score as percentage of eyes, Score (%) 0 (rabbit eye; 1% topical formulation, −180 min (basal), 8 eyes): 100% | Rabbits that died or were euthanized between Days 11 and 33 ([2]; 0.05 mg/dose (0.1% dexamethasone suspension; 1 mg/g BOL-303242-X suspension)): one of ten | Mortality (animals found dead or euthanized prior to study completion/number of animals in group) ([2]; 1 mg/g, 0.05 mg/dose): 1/10^(6) | Day of Death (day euthanized or found dead) ([2]; 5 mg/g BOL-303242-X ([…]) topical 4 x daily, individual rabbits, Group C): 33 | Rabbits that died or were euthanized between Days 11 and 33 ([2]; 5 mg/g suspension ([…])): two of ten | Mortality (animals found dead or euthanized prior to study completion/number of animals in group) ([2]; 5 mg/g, […]): 2/10^(5) | Day of Death (day euthanized or found dead) ([2]; 10 mg/g BOL-303242-X (0.5 mg/dose) topical 4 x daily, individual rabbit, Group B): 11 | Rabbits that died or were euthanized between Days 11 and 33 ([2]; 10 mg/g suspension (0.5 mg/dose)): one of ten | Morbidity observation in surviving rabbits ([2]; 10 mg/g suspension (0.5 mg/dose), one surviving rabbit (Group B, No. 3048)): diarrhea on Day 18 | Mortality (animals found dead or euthanized prior to study completion/number of animals in group) ([2]; 10 mg/g, 0.5 mg/dose): 1/10^(4) | Mortality rate ([2]; right eye four times daily up to 31 days, dexamethasone 0.05 mg/dose, BOL-303242-X per dose level (0.05, 0.25, 0.5 mg/dose)): 1-2 deaths per 10 rabbits
